Assay results taken from publication PMC12217463, “Functional and structural analyses of amino acid sequence variation in PDC β-lactamase reveal different mechanistic pathways toward cefiderocol resistance in Pseudomonas aeruginosa” (Antimicrobial Agents and Chemotherapy, 2025).
Converted amounts (≈) assume the structure as drawn.

Legend:
[1] = target: PDC L293P (Pseudomonas aeruginosa, UniProt P24735, L320P); experiment: Steady-state kinetics of purified β-lactamase; settings: for Km / kcat: PDC L293P, 10 mM PBS, pH 7.4, room temperature; for Km: antibiotics: determined as Ki app with nitrocefin as reporter substrate; for kcat: direct hydrolysis at substrate concentration at least three times the Km; for Ratio for PDC L293P/PDC-1: ratio of kcat/Km (fold change in catalytic efficiency)
[2] = target: PDC E219K (Pseudomonas aeruginosa, UniProt P24735, E247K); experiment: Steady-state kinetics of purified β-lactamase; settings: for increase in kcat values: PDC E219K relative to PDC-1; for Km / kcat: PDC E219K, 10 mM PBS, pH 7.4, room temperature; for Km: antibiotics: determined as Ki app with nitrocefin as reporter substrate; for kcat: direct hydrolysis at substrate concentration at least three times the Km; for Ratio for PDC E219K/PDC-1: ratio of kcat/Km (fold change in catalytic efficiency)
[3] = system: PAO1 + blaPDC S226ins; experiment: MIC, broth microdilution; assay type: cell-based; settings: Pseudomonas aeruginosa, avibactam and tazobactam fixed at 4 mg/L, FDC in iron-depleted CAMHB
Source text: (§1) We took advantage of a previously constructed and characterized laboratory collection of recombinant P. aeruginosa PAO1 isolates expressing different blaPDC variants, but specifically enriched for this work with additional variants, following the previously described methodology ([17]). […] The final collection comprised 40 recombinant isolates (20 in PAO1 and 20 in PAO ΔpiuC) producing the wild-type PDC-1 variant from PAO1 and 19 derivatives carrying specific amino acid substitutions previously associated with the development of resistance to ceftazidime/avibactam, ceftolozane/tazobactam, or cefiderocol: T70I, F121L, P153L, G156D, A200T, G202S, ΔG202-E219, G214R, P215L, P215S, ΔP215-G222, D217N, E219K, E219G, E219D, S226ins, L293P, F121L + E219K, and F121L + G222S.
(§2) The MICs of ceftazidime, ceftazidime/avibactam, ceftolozane/tazobactam, cefepime, and cefiderocol were determined in triplicate, for all isolates, by reference broth microdilution assays. Avibactam and tazobactam were fixed at 4 mg/L. All assays were performed using cation-adjusted Mueller-Hinton broth (CAMHB), except for cefiderocol, which was determined in all cases using iron-depleted CAMHB, prepared according to CLSI M100 guidelines ([40]). EUCAST v.15.0 clinical breakpoints and guidelines (http://www.eucast.org/clinical_breakpoints/) were used for reference purposes. Reference strains Escherichia coli ATCC 25922, Klebsiella pneumoniae ATCC 700603, and P. aeruginosa ATCC 27853 were used as controls.

[4] = system: PAO1 + blaPDC A200T; experiment: MIC, broth microdilution; assay type: cell-based; settings: Pseudomonas aeruginosa
Source text: as §1, §2

[5] = system: PAO1 + blaPDC F121L; experiment: MIC, broth microdilution; assay type: cell-based; settings: Pseudomonas aeruginosa
Source text: as §1, §2

[6] = system: PAO1 + blaPDC E219D; experiment: MIC, broth microdilution; assay type: cell-based; settings: Pseudomonas aeruginosa
Source text: as §1, §2

[7] = system: PAO1 + blaPDC G202S; experiment: MIC, broth microdilution; assay type: cell-based; settings: Pseudomonas aeruginosa
Source text: as §1, §2

[8] = system: PAO1 + blaPDC P215S; experiment: MIC, broth microdilution; assay type: cell-based; settings: Pseudomonas aeruginosa
Source text: as §1, §2

[9] = system: PAO1 + blaPDC ∆P215-G222; experiment: MIC, broth microdilution; assay type: cell-based; settings: Pseudomonas aeruginosa, avibactam and tazobactam fixed at 4 mg/L, FDC in iron-depleted CAMHB
Source text: as §1, §2

[10] = system: PAO1 + blaPDC G214R; experiment: MIC, broth microdilution; assay type: cell-based; settings: Pseudomonas aeruginosa
Source text: as §1, §2

[11] = system: PAO1 + blaPDC P215L; experiment: MIC, broth microdilution; assay type: cell-based; settings: Pseudomonas aeruginosa
Source text: as §1, §2

[12] = system: PAO1 + blaPDC G156D; experiment: MIC, broth microdilution; assay type: cell-based; settings: Pseudomonas aeruginosa
Source text: as §1, §2

[13] = system: PAO1 + blaPDC T70I; experiment: MIC, broth microdilution; assay type: cell-based; settings: Pseudomonas aeruginosa
Source text: as §1, §2

[14] = system: PAO1 + blaPDC-1 (WT); experiment: MIC, broth microdilution; assay type: cell-based; settings: Pseudomonas aeruginosa, avibactam and tazobactam fixed at 4 mg/L, FDC in iron-depleted CAMHB
Source text: as §1, §2

[15] = system: PAO1; experiment: MIC, broth microdilution; assay type: cell-based; settings: Pseudomonas aeruginosa; PAO1 wild type, no plasmid-borne PDC; avibactam and tazobactam fixed at 4 mg/L; FDC in iron-depleted CAMHB
Source text: as §1, §2

[16] = system: PAO1 + blaPDC D217N; experiment: MIC, broth microdilution; assay type: cell-based; settings: Pseudomonas aeruginosa
Source text: as §1, §2

[17] = system: PAO1 + blaPDC E219G; experiment: MIC, broth microdilution; assay type: cell-based; settings: Pseudomonas aeruginosa
Source text: as §1, §2

[18] = system: PAO1 + blaPDC E219K; experiment: MIC, broth microdilution; assay type: cell-based; settings: Pseudomonas aeruginosa
Source text: as §1, §2

[19] = system: PAO1 + blaPDC F121L + E219K; experiment: MIC, broth microdilution; assay type: cell-based; settings: Pseudomonas aeruginosa
Source text: as §1, §2

[20] = system: PAO1 + blaPDC P153L; experiment: MIC, broth microdilution; assay type: cell-based; settings: Pseudomonas aeruginosa
Source text: as §1, §2

[21] = system: PAO1 + blaPDC L293P; experiment: MIC, broth microdilution; assay type: cell-based; settings: Pseudomonas aeruginosa
Source text: as §1, §2

[22] = system: PAO1 + blaPDC ∆G202-E219; experiment: MIC, broth microdilution; assay type: cell-based; settings: Pseudomonas aeruginosa, avibactam and tazobactam fixed at 4 mg/L, FDC in iron-depleted CAMHB
Source text: as §1, §2

[23] = system: PAO1 + blaPDC F121L + G220S; experiment: MIC, broth microdilution; assay type: cell-based; settings: Pseudomonas aeruginosa
[24] = target: PDC-1 (WT) (Pseudomonas aeruginosa, UniProt P24735); experiment: Steady-state kinetics of purified β-lactamase; settings: for kcat: PDC-1 (WT), direct hydrolysis at substrate concentration at least three times the Km, 10 mM PBS, pH 7.4, room temperature; for Ratio: kcat/Km relative to PDC-1 (reference = 1)
[25] = system: CC(C)(O/N=C(\C(=O)N[C@@H]1C(=O)N2C(C(=O)[O-])=C(C[N+]3(CCNC(=O)c4ccc(O)c(O)c4Cl)CCCC3)CS[C@H]12)c1csc(N)n1)C(=O)O; experiment: purified protein, by the assay type; settings: other: PDC-1 (WT), antibiotics: determined as Ki app with nitrocefin as reporter substrate, 10 mM PBS, pH 7.4, room temperature
[26] = system: Cn1c(N)c(NC(=O)NCCN)c[n+]1CC1=C(C(=O)O)N2C(=O)[C@@H](NC(=O)/C(=N\OC(C)(C)C(=O)[O-])c3nsc(N)n3)[C@H]2SC1; experiment: purified protein, by the assay type; settings: other: PDC-1 (WT), antibiotics: determined as Ki app with nitrocefin as reporter substrate, 10 mM PBS, pH 7.4, room temperature
[27] = system: CO/N=C(\C(=O)N[C@@H]1C(=O)N2C(C(=O)[O-])=C(C[N+]3(C)CCCC3)CS[C@H]12)c1csc(N)n1; experiment: purified protein, by the assay type; settings: other: PDC-1 (WT), antibiotics: determined as Ki app with nitrocefin as reporter substrate, 10 mM PBS, pH 7.4, room temperature
[28] = system: O=C(Cc1cccs1)N[C@@H]1C(=O)N2C(C(=O)O)=C(/C=C/c3ccc([N+](=O)[O-])cc3[N+](=O)[O-])CS[C@H]12; experiment: purified protein, by the assay type; settings: other: PDC-1 (WT), antibiotics: determined as Ki app with nitrocefin as reporter substrate, 10 mM PBS, pH 7.4, room temperature
[29] = system: CC(C)(O/N=C(\C(=O)N[C@@H]1C(=O)N2C(C(=O)[O-])=C(C[n+]3ccccc3)CS[C@H]12)c1csc(N)n1)C(=O)O; experiment: purified protein, by the assay type; settings: other: PDC-1 (WT), antibiotics: determined as Ki app with nitrocefin as reporter substrate, 10 mM PBS, pH 7.4, room temperature

Molecule | Km [1] [µM] | kcat [1] [s⁻¹] | Ratio for PDC L293P/PDC-1 [1] | increase in kcat values [2] | Km [2] [µM] | MIC [3] [µg/mL] | MIC [4] [µg/mL] | MIC [5] [µg/mL] | MIC [6] [µg/mL] | MIC [7] [µg/mL] | MIC [8] [µg/mL] | MIC [9] [µg/mL] | MIC [10] [µg/mL] | MIC [11] [µg/mL] | MIC [12] [µg/mL] | MIC [13] [µg/mL] | MIC [14] [µg/mL] | Ratio [24] | kcat [2] [s⁻¹] | Ratio for PDC E219K/PDC-1 [2] | other results
CC(C)(O/N=C(\C(=O)N[C@@H]1C(=O)N2C(C(=O)[O-])=C(C[n+]3ccccc3)CS[C@H]12)c1csc(N)n1)C(=O)O [CAZ, ceftazidime] | 2.84 ± 0.31 | 0.0110 ± 0.0003 | 8.67 | ≈ 267 fold | 292 ± 27.5 | 128 | 64 (≈ 117 µM) | 64 (≈ 117 µM) | 64 (≈ 117 µM) | 64 (≈ 117 µM) | 64 (≈ 117 µM) | 256 | 128 (≈ 234 µM) | 64 (≈ 117 µM) | 64 (≈ 117 µM) | 64 (≈ 117 µM) | 32 | 1 | – | – | kcat ([2]; listed as Ceftazidime): 2.19 ± 0.17 s⁻¹; kcat ([2]; listed as ceftazidime): 2.19 s⁻¹; Ratio for PDC E219K/PDC-1 ([2]; listed as Ceftazidime): 15.56; Ratio for PDC E219K/PDC-1 ([2]; listed as ceftazidime): ≈ 16; MIC [15]: ≤ 1 µg/mL; MIC [16]: 64 µg/mL (≈ 117 µM); MIC [17]: 16 µg/mL (≈ 29.3 µM); MIC [18]: 256 µg/mL (≈ 468 µM); MIC [19]: > 256 µg/mL; MIC [20]: 128 µg/mL (≈ 234 µM); MIC [21]: 64 µg/mL (≈ 117 µM); MIC [22]: 64 µg/mL; MIC [23]: 64 µg/mL (≈ 117 µM); kcat [24]: 0.0082 s⁻¹
Cn1c(N)c(NC(=O)NCCN)c[n+]1CC1=C(C(=O)O)N2C(=O)[C@@H](NC(=O)/C(=N\OC(C)(C)C(=O)[O-])c3nsc(N)n3)[C@H]2SC1 [Ceftolozane, ceftolozane] | 108 ± 28.8 | 0.051 ± 0.007 | 3.69 | ≈ 58 fold | 266 ± 43.5 | – | – | – | – | – | – | – | – | – | – | – | – | 1 | 4.18 ± 0.19 | 123.08 | kcat ([2]; listed as ceftolozane): 4.18 s⁻¹; Ratio for PDC E219K/PDC-1 ([2]; listed as ceftolozane): ≈ 123; kcat [24]: 0.0715 s⁻¹
CO/N=C(\C(=O)N[C@@H]1C(=O)N2C(C(=O)[O-])=C(C[N+]3(C)CCCC3)CS[C@H]12)c1csc(N)n1 [FEP, cefepime] | 4.58 ± 0.42 | 0.189 ± 0.007 | 39.29 | – | 92.5 ± 26.3 | 8 | 16 (≈ 33.3 µM) | 16 (≈ 33.3 µM) | 8 (≈ 16.6 µM) | 16 (≈ 33.3 µM) | 8 (≈ 16.6 µM) | 32 | 16 (≈ 33.3 µM) | 8 (≈ 16.6 µM) | 4 (≈ 8.32 µM) | 16 (≈ 33.3 µM) | 16 | 1 | 0.25 ± 0.06 | 2.57 | improvement in substrate binding affinity (Km decrease) ([1]; PDC L293P relative to PDC-1): ≈ 29 fold; MIC [15]: 2 µg/mL; MIC [16]: 16 µg/mL (≈ 33.3 µM); MIC [17]: 4 µg/mL (≈ 8.32 µM); MIC [18]: 32 µg/mL (≈ 66.6 µM); MIC [19]: 32 µg/mL (≈ 66.6 µM); MIC [20]: 32 µg/mL (≈ 66.6 µM); MIC [21]: 128 µg/mL (≈ 266 µM); MIC [22]: 8 µg/mL; MIC [23]: 32 µg/mL (≈ 66.6 µM)
O=C(Cc1cccs1)N[C@@H]1C(=O)N2C(C(=O)O)=C(/C=C/c3ccc([N+](=O)[O-])cc3[N+](=O)[O-])CS[C@H]12 [Nitrocefin, nitrocefin] | 6.71 ± 1.28 | 18.77 ± 4.37 | 1.80 | – | 24.1 ± 4.01 | – | – | – | – | – | – | – | – | – | – | – | – | 1 | 4.41 ± 0.18 | 0.12 | –
PDC-1 (WT) (Pseudomonas aeruginosa PAO1) | – | – | – | – | – | – | – | – | – | – | – | – | – | – | – | – | – | – | – | – | Km [25]: 85.29 ± 9.48 µM; kcat [25]: 0.0036 ± 0.0007 s⁻¹; kcat/Km [25]: 40 M⁻¹ s⁻¹; Km [26]: 554.08 ± 3.00 µM; kcat [26]: 0.0715 ± 0.0006 s⁻¹; kcat/Km [26]: 130 M⁻¹ s⁻¹; Km [27]: 132.06 ± 23.69 µM; kcat [27]: 0.138 ± 0.009 s⁻¹; kcat/Km [27]: 1050 M⁻¹ s⁻¹; Km [28]: 13.98 ± 0.80 µM; kcat [28]: 21.9 ± 6.5 s⁻¹; kcat/Km [28]: 1.55e+06 ± 380000 M⁻¹ s⁻¹; Km [29]: 18.08 ± 0.88 µM; kcat [29]: 0.0082 ± 0.0007 s⁻¹; kcat/Km [29]: 450 M⁻¹ s⁻¹
